Laboratory results taken from patent US7728014B2, “Heteroaromatic compounds having sphingosine-1-phosphate (S1P) receptor agonist biological activity” (Allergan, Inc., priority 2006, dated 2010).

Assays:
human S1P3 receptor = target: T1, human S1P3 receptor (Homo sapiens, UniProt Q99500); experiment: FLIPR Ca+2 response assay, activation of human S1P3 receptor in T24 cells; format: cell-based; settings: for Emax at 10 µM: T-24, receptor activity at highest dose (10 μM) relative to that induced by 5 nM sphingosine-1-phosphate, read-out: S1P3 (% efficacy); for EC50: T24 cells stably expressing human S1P3, tested 0.61 nM to 10,000 nM
T1 construct: expressed in transfected cells
Experimental: Compounds were also assessed for their ability to activate or block activation of the human S1P3 receptor in T24 cells stably expressing the human S1P3 receptor. Ten thousand cells/well were plated into 384-well poly-D-lysine coated plates one day prior to use. The growth media for the S1P3 receptor expressing cell line was McCoy's 5A medium supplemented with 10% charcoal-treated fetal bovine serum (FBS), 1% antibiotic-antimycotic and 400 μg/ml geneticin. On the day of the experiment, the cells were washed twice with Hank's Balanced Salt Solution supplemented with 20 mM HEPES (HBSS/Hepes buffer). The cells were then dye loaded with 2 uM Fluo-4 diluted in the HBSS/Hepes buffer with 1.25 mM Probenecid and incubated at 37° C. for 40 minutes. Extracellular dye was removed by washing the cell plates four times prior to placing the plates in the FLIPR (Fluorometric Imaging Plate Reader, Molecular Devices). Ligands were diluted in HBSS/Hepes buffer and prepared in 384-well microplates. The positive control, Sphingosine-1-Phosphate (S1P), was diluted in HBSS/Hepes buffer with 4 mg/ml fatty acid free bovine serum albumin. The FLIPR transferred 12.5 μl from the ligand microplate to the cell plate and took fluorescent measurements for 75 seconds, taking readings every second, and then for 2.5 minutes, taking readings every 10 seconds. Drugs were tested over the concentration range of 0.61 nM to 10,000 nM. Data for Ca^+2 responses were obtained in arbitrary fluorescence units and not translated into Ca^+2 concentrations. IC50 values were determined through a […] regression analysis using the Levenburg Marquardt algorithm. In Table 1, NA is defined as “Not Active,” ND is defined as “Not Determined,” % efficacy is defined as “percent of receptor activity induced by a test compound at the highest dose test (10 μM) relative to the receptor activity induced by 5 nM sphingosine-1-phosphate,” and % inhibition is defined as “percent of receptor activity induced by 5 nM sphingosine-1-phosphate that is inhibited by a test compound at the highest dose tested (10 μM).”

perfused porcine eyes = settings: IOVS 45, 2263, 2004; cited from earlier work

T1 sequence (Q99500 whole entry): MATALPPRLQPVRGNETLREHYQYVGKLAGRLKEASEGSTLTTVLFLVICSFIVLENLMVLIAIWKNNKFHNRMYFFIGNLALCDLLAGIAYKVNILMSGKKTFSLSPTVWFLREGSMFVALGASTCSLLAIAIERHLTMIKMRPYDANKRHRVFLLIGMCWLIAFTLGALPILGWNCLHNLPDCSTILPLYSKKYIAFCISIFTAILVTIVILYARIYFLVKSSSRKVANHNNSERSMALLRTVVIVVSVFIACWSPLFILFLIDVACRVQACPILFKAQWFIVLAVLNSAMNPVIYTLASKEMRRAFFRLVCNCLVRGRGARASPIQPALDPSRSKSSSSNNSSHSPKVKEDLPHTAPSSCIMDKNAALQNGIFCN

| SMILES | Emax at 10 µM (human S1P3 receptor) | EC50 (human S1P3 receptor; NA = Not Active) | EC50 (human S1P3 receptor) | decrease of outflow facility (perfused porcine eyes) |
| --- | --- | --- | --- | --- |
| CCOC(=O)c1nnc(-c2ccccc2)c(-c2ccc(C(F)(F)F)cc2)n1 [Example 19, Ethyl 5-(4-Trifluoromethylphenyl)-6-phenyl-1,2,4-triazine-3-carboxylatate] | 34% | – | – | – |
| CCOC(=O)c1ccc(-c2ccccc2)c(-c2ccc(C)cc2)n1 [Example 27, Ethyl 5-Phenyl-6-p-tolyl-pyridine-2-carboxylate] | 46% | 3700 nM | – | – |
| CCCc1ccc(-c2ccc(C(=O)OCC)nc2-c2ccccc2)cc1 [Example 24, Ethyl 6-Phenyl-5-(4-propylphenyl)-pyridine-2-carboxylate] | 50% | 3100 nM | – | – |
| CCc1ccc(-c2ccc(C(=O)OC)nc2-c2ccncc2)cc1 [Example 52, Methyl 5-(4-Ethylphenyl)-6-(pyridin-4-yl)pyridine-2-carboxylate] | 90% | – | 340 nM | – |
| COC(=O)c1ccc(-c2ccc(C)cc2)c(-c2ccccc2)n1 [Example 31, Methyl 6-Phenyl-5-p-tolyl-pyridine-2-carboxylate] | 73% | 580 nM | – | – |
| COC(=O)c1ccc(-c2ccccc2)c(-c2ccc(C(F)(F)F)cc2)n1 [Example 35, Methyl 5-Phenyl-6-(4-trifluoromethylphenyl)-pyridine-2-carboxylate] | 91% | 2300 nM | – | – |
| COC(=O)c1ccc(-c2ccccc2)c(-c2ccccc2)n1 [Example 30, Methyl 5,6-diphenylpyridine-2-carboxylate] | 84% | 700 nM | – | – |
| CCOC(=O)c1ccc(-c2ccccc2)c(-c2ccc(CC)cc2)n1 [Example 28, Ethyl 6-(4-Ethylphenyl)-5-phenyl-pyridine-2-carboxylate] | 48% | 2900 nM | – | – |
| CCOC(=O)c1nnc(-c2ccc(CC)cc2)c(-c2ccccc2)n1 [Example 13, Ethyl 6-(4-Ethylphenyl)-5-phenyl-1,2,4-triazine-3-carboxylate] | 57% | 1600 nM | – | – |
| CCc1ccc(-c2ccc(C(=O)OC)nc2-c2ccccc2)cc1 [Example 32, Methyl 5-(4-Ethylphenyl)-6-phenyl-pyridine-2-carboxylate] | 88% | 570 nM | – | – |
| CCCCCCCCCCCCC/C=C/[C@@H](O)[C@@H](N)COP(=O)(O)O [Example S1P, Sphingosine-1-Phosphate] | – | – | – | > 30% |
| CCOC(=O)c1nnc(-c2ccc(C)cc2)c(-c2ccccc2)n1 [Example 17, Ethyl 5-Phenyl-6-p-tolyl-1,2,4-triazine-3-carboxylate] | – | 2900 nM | – | – |
| CCCc1ccc(-c2ccc(C(=O)OC)nc2-c2ccccc2)cc1 [Example 33, Methyl 6-Phenyl-5-(4-propylphenyl)-pyridine-2-carboxylate] | 81% | 2900 nM | – | – |
| CCOC(=O)c1ccc(-c2ccc(CC)cc2)c(-c2ccccc2)n1 [Example 23, Ethyl 5-(4-Ethyl-phenyl)-6-phenyl-pyridine-2-carboxylate] | 82% | 1400 nM | – | – |
| CCOC(=O)c1ccc(-c2ccccc2)c(-c2ccccc2)n1 [Example 21, Ethyl 5,6-diphenylpyridine-2-carboxylate] | 80% | 1800 nM | – | – |
| CCOC(=O)c1ccc(-c2ccc(C)cc2)c(-c2ccccc2)n1 [Example 22, Ethyl 6-Phenyl-5-p-tolyl-pyridine-2-carboxylate] | 32% | 740 nM | – | – |

Second part, led by results:

| Emax at 10 µM (human S1P3 receptor) | EC50 (human S1P3 receptor; NA = Not Active) | EC50 (human S1P3 receptor) | SMILES | decrease of outflow facility (perfused porcine eyes) |
| --- | --- | --- | --- | --- |
| 64% | 2300 nM | – | CCc1ccc(-c2nnc(C(=O)OC)nc2-c2ccccc2)cc1 [Example 89, Methyl 6-(4-Ethyl-phenyl)-5-phenyl-1,2,4-triazine-3-carboxylate] | – |
| 30% | 2600 nM | – | CCC(=O)c1ccc(-c2ccccc2)c(-c2ccc(C(F)(F)F)cc2)n1 [Example 79, 1-[5-Phenyl-6-(4-trifluoromethyl-phenyl)-pyridin-2-yl]-propan-1-one] | – |
| 95% | 4400 nM | – | CCC(=O)c1cnc(-c2ccccc2)c(-c2ccccc2)n1 [Example 95, 1-(5,6-Diphenyl-pyrazin-2-yl)-propan-1-one] | – |
| 62% | 4100 nM | – | COC(=O)c1cnc(-c2ccccc2)c(-c2ccccc2)n1 [Example 93, Methyl 5,6-Diphenyl-pyrazine-2-carboxylate] | – |
| 59% | 2400 nM | – | COCc1ccc(-c2ccccc2)c(-c2ccccc2)n1 [Example 92, 6-Methoxymethyl-2,3-diphenyl-pyridine] | – |
| 61% | 2300 nM | – | CC(=O)c1cnc(-c2ccccc2)c(-c2ccccc2)n1 [Example 94, 1-(5,6-Diphenyl-pyrazin-2-yl)-ethanone] | – |
| 51% | > 10000 nM | – | CC(=O)c1ccc(-c2ccccc2)c(-c2ccccc2)n1 [Example 75, 1-(5,6-Diphenyl-pyridin-2-yl)-ethanone] | – |
| 41% | 3400 nM | – | CCC(=O)c1ccc(-c2ccccc2)c(-c2ccccc2)n1 [Example 76, 1-(5,6-Diphenyl-pyridin-2-yl)-propan-1-one] | – |
